Experimental data published in patent publication US7355033B2, “Screening for West Nile Virus antiviral therapy” (Health Research, Inc., priority 2002, dated 2008).

Assays:
[1] = test system: WNV; conditions: Morrey et al. 2002; read-out: EC50 derived from the standard viral infection assay; cited from earlier work
[2] = test system: lineage I WNV replicon (Rluc/NeoRep) RNA; assay: Replicon RNA copy number by real-time RT-PCR in Rluc/NeoRep reporting cell line; format: cell-based; conditions: West Nile virus, 24 h, read-out: EC50 derived from the replicon RNA copy numbers
Description: (§1) To test the stability of the replicon-containing cell lines, cells at various time points post-selection (p.s.) were examined for viral and Rluc protein expression, and for replicon RNA copy numbers. […] (lower two panels in FIG. 18B). […] (ii) Stable and high levels of Rluc activity were detected from cells collected on days 20, 50, and 80 p.s. (FIG. 18C). For Rluc assay, 10^6 cells were lysed in 500 microliters of lysis buffer; 20 microliters of lysate was measured for Rluc activity according to the manufacturer (Promega) using a Lumat luminometer (EG & G, Berthold, Australia). Approximately 8×10^6 light units were consistently detected from 4×10^4 cells, about 200 light units per cell. (iii) A consistent level of replicon RNA was maintained in cells at 20, 50, and 80 days p.s. (FIG. 18D). Real-time RT-PCR, targeting the viral NS1 region, was used to quantify replicon RNA as previously reported (Shi, P. Y., et al. 2002. Virology 296:219-233; Shi, P. Y., et al. 2002. J. Virol. 76:5847-56; Lo, M. K., et al. 2003. J. Virology 77, 12901-12906). Total RNA extracted from 10^6 cells was eluted in 50 microliters of RNase-free water using RNeasy kits (Qiagen); 5 microliters of RNA was quantified by real-time RT-PCR, using in vitro trancribed RNA as standards. About 10^9 replicon molecules in 10^5 cells was estimated, or about 10^4 replicon RNAs per cell.
To verify that the reduction in Rluc activity reflected the compound inhibition of viral RNA replication, RT-PCR was performed. After 24 h of compound treatment, cells from the 12-well plates were assayed for RNA amounts as described above, except that 12 μl from the 50 μl extracted RNA was used in the real-time RT-PCR assay. […] The relative potencies of the three tested compounds are also similar to those observed with the Rluc results, in the decreasing order of mycophenolic acid, 6-azauridine, and ribavirin (compare FIGS. 19A to 19B). […]

[3] = test system: lineage I WNV replicon (Rluc/NeoRep); assay: Rluc activity in BHK-21 reporting cell line containing WNV Rluc/NeoRep replicon; format: cell-based; conditions: West Nile virus, 24 h compound treatment, 12-well plates, estimated from Rluc curves, read-out: EC50 (compound concentration required to inhibit 50% of the Rluc activity)
Description: as §1
To examine whether the reporting cell line can be used as an antiviral assay, three known WNV inhibitors were tested in the cells: 6-azauridine, an inhibitor of orotidine monophosphate decarboxylase, and mycophenolic acid and ribavirin, inhibitors of inosine monophosphate dehydrogenase (De Clercq, E. 1993. Advance Virus Res. 42:1-55; Jordan, I., et al. 2000. J. Infect. Dis. 182:1214-7; Morrey, J., et al. 2002. Antiviral Res. 55:107-116). Ribavirin has also been reported to function as a mutagen, causing lethal levels of mutagenesis within the virus population (Crotty, S., et al. 2000. Nature Med. 6:1375-9). All three compounds were purchased from Sigma (St. Louis, Mo.). Initially, the assay was performed in 12-well plates. […]

Row | Compound | EC50 [1] [µM] | EC50 [2] [µM] | EC50 [3] [µM]
1 | O=c1cnn([C@@H]2O[C@H](CO)[C@@H](O)[C@H]2O)c(=O)[nH]1 [6-azauridine] | 6.1 | > 300 | 11
2 | COc1c(C)c2c(c(O)c1C/C=C(\C)CCC(=O)O)C(=O)OC2 [mycophenolic acid] | 8.4 | ~100 | 5.4
3 | NC(=O)c1ncn([C@@H]2O[C@H](CO)[C@@H](O)[C@H]2O)n1 [ribavirin] | 178 | > 300 | 140
